Source: ChEMBL document CHEMBL1132130, “Synthesis of heterocyclic enol ethers and their use as group 2 metabotropic glutamate receptor antagonists” (Bioorg Med Chem Lett, 1999)
Calls of active or inactive are those of the source. The calls are words filed in the database; no cut-off is given here.

Legend:
[1] = target: T1, Metabotropic glutamate receptor 2 (Rattus norvegicus, UniProt P31421); experiment: Inhibition of 1S, 3R-ACPD (10 uM)-stimulated GTP gamma 35S binding on rat mGluR2 transfected cell membranes from CHO cells
[2] = target: Glutamate receptor ionotropic, kainate (Rattus norvegicus) (UniProt P22756+Q01812+P42260+P42264+Q63273); experiment: Compound was tested for inhibition of binding of [3H]kainate to Ionotropic glutamate receptor kainate in rat brain membranes up to 100 uM; IA means inactive; format: cell membranes
[3] = target: Glutamate receptor ionotropic, AMPA (Rattus norvegicus) (UniProt P19491+P19492+P19493+P19490); experiment: Compound was tested for inhibition of binding of [3H]-Ro- 48-8587 to Ionotropic glutamate receptor AMPA in rat brain membranes up to 100 uM; IA means inactive; format: cell membranes
[4] = target: Glutamate receptor ionotropic, NMDA 2C (Rattus norvegicus) (UniProt Q00961); experiment: Compound was tested for inhibition of binding of [3H]-MK 801 to NMDA receptor in rat brain membranes up to 100 uM; IA means inactive; format: cell membranes
[5] = target: T1, Metabotropic glutamate receptor 2; experiment: Inhibition of [3H]-DCG IV binding on rat mGluR2 transfected cell membranes from CHO cells
[6] = target: Metabotropic glutamate receptor 4 (Rattus norvegicus) (UniProt P31423); experiment: Compound was tested for agonistic or antagonistic activity on rat mGluR4 using the GTP-gamma 35S binding model up to 100 uM; IA means devoid of activity
[7] = target: Metabotropic glutamate receptor 5 (Rattus norvegicus) (UniProt P31424); experiment: Compound was tested for agonistic or antagonistic activity on rat mGluR5 using intracellular Ca 2+ measurement up to 100 uM; IA means devoid of activity; format: functional, cell-based
[8] = target: T1, Metabotropic glutamate receptor 2; experiment: Inhibition of 10 uM 1S, 3R-ACPD stimulated GTP gamma 35S binding to rat mGluR2 expressed in CHO cells; format: cell-based
[9] = target: Metabotropic glutamate receptor 1 (Rattus norvegicus) (UniProt P23385); experiment: Compound was tested for agonistic or antagonistic activity on rat mGluR1 using intracellular Ca 2+ measurement up to 100 uM; IA means devoid of activity; format: functional, cell-based
Sequence of Metabotropic glutamate receptor 1 (Rattus norvegicus) (P23385 19-1199 limits assumed): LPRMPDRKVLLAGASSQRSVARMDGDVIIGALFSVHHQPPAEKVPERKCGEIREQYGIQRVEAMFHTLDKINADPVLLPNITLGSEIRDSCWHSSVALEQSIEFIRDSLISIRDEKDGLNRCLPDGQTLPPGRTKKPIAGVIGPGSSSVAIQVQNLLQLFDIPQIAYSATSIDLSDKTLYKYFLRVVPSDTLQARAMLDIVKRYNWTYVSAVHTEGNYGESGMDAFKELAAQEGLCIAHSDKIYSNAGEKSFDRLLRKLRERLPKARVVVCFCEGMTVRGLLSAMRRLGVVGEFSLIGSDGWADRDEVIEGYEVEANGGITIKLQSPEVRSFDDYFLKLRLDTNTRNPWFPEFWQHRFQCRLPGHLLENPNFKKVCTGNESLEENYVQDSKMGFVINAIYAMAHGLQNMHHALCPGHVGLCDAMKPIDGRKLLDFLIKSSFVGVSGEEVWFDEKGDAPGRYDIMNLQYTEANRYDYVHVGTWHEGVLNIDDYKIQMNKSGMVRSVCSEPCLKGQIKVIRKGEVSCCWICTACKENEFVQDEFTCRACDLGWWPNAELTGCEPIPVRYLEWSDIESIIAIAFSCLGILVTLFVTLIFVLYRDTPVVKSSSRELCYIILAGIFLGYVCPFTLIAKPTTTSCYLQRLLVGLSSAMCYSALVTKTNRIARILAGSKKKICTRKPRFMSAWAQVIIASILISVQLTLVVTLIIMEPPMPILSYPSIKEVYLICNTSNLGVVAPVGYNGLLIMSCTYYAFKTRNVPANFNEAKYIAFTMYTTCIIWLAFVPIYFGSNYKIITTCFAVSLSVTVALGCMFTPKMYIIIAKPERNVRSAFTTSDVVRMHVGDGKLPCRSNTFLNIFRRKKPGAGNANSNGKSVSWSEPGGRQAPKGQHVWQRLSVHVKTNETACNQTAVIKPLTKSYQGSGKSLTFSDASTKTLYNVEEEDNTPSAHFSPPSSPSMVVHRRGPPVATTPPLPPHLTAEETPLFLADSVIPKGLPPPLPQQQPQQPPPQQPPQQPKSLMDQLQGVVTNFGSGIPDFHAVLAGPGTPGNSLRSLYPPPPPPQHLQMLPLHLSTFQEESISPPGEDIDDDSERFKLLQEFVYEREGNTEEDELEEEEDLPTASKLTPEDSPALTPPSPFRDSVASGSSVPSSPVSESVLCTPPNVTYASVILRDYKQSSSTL

T1 sequence (P31421 whole entry): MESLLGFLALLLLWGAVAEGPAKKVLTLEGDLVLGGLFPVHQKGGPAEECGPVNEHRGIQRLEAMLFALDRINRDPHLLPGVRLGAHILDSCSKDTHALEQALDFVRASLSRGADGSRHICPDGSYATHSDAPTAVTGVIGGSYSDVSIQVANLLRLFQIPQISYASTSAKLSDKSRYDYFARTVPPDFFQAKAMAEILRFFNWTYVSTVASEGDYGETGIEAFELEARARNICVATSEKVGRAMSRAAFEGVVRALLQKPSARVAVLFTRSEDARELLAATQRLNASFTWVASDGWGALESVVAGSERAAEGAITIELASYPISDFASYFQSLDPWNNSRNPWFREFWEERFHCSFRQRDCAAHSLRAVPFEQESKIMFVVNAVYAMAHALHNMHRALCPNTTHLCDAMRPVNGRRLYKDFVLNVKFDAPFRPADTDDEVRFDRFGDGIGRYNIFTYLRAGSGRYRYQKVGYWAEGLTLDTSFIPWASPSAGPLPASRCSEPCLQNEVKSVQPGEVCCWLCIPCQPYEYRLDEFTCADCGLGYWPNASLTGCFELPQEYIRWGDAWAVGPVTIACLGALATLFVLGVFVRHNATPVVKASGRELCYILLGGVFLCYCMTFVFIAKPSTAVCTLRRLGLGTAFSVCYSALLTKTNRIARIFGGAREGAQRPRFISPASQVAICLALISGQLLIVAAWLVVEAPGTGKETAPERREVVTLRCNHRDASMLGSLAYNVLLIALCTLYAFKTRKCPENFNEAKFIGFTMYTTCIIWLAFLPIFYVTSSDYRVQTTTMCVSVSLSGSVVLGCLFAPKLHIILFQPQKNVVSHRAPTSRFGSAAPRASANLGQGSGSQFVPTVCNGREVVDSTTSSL
Sequence of Glutamate receptor ionotropic, NMDA 2C (Rattus norvegicus) (Q00961 20-1237 limits assumed): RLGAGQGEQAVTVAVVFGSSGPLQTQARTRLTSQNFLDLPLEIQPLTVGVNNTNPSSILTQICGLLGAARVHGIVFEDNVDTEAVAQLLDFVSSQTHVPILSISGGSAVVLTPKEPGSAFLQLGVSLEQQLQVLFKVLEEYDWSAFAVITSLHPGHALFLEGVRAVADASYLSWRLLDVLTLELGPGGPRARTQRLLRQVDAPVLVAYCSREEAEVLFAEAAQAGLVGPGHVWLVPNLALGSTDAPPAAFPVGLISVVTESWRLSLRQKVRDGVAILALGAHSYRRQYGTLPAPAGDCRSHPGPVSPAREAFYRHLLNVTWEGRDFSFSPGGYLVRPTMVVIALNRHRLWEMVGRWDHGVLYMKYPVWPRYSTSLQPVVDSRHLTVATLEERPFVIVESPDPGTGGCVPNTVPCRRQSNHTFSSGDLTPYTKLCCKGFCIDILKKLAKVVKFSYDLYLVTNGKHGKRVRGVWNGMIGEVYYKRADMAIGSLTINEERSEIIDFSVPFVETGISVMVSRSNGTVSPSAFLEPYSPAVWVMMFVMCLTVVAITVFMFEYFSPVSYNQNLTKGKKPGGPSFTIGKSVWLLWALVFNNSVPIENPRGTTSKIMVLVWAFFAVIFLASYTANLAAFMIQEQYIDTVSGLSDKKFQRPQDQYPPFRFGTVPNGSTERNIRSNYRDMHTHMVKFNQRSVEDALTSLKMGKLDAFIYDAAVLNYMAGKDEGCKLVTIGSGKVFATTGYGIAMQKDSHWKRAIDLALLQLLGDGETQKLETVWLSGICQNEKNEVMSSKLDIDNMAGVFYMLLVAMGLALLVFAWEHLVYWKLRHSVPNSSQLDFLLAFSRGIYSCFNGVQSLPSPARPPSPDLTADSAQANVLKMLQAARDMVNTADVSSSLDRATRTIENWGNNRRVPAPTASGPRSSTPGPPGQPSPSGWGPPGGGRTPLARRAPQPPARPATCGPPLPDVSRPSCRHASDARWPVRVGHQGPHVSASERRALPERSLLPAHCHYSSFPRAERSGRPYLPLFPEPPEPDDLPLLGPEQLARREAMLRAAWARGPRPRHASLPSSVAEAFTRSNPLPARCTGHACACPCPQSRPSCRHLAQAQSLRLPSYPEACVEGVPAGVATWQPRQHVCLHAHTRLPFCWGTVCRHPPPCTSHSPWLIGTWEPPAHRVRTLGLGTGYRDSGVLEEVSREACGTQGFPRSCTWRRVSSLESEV
Sequence of Metabotropic glutamate receptor 4 (Rattus norvegicus) (P31423 whole entry): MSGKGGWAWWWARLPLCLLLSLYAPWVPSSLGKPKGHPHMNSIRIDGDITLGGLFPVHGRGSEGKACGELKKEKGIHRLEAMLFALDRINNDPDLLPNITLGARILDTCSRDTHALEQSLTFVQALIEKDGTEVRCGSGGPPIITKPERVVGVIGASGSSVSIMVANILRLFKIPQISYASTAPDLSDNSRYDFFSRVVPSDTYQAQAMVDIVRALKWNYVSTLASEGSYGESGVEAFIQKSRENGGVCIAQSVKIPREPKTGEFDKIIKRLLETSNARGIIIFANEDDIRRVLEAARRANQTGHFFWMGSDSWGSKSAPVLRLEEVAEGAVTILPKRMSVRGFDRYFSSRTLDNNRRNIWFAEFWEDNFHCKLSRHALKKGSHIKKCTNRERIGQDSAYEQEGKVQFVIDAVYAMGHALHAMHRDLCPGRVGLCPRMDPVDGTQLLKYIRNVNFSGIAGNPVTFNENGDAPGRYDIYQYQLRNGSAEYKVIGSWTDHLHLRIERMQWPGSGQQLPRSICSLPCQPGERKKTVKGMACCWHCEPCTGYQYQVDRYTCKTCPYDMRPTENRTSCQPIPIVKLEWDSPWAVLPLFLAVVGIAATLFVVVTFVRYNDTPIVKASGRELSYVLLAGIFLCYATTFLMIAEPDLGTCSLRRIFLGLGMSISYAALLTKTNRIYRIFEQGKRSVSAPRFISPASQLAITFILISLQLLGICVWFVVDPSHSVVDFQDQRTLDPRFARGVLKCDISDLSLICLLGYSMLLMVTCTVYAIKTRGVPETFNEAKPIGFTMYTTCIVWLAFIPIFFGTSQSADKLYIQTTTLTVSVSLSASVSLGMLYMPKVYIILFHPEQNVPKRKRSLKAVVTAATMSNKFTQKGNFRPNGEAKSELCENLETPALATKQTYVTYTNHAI

IC50 [1] [nM]	Activity [2]	Activity [3]	Activity [4]	IC50 [5] [nM]	Activity [6]	Activity [7]	IC50 [8] [nM]	Activity [9]	Structure (SMILES)
> 100000									COc1ccc(/C(=C/n2cncn2)OC(C)C)c(OC)c1
	inactive	inactive	inactive	500	inactive	inactive	110	inactive	Clc1cccc(Cl)c1/C(=C/n1cncn1)OC1CCCCCC1
